Test results reported in ChEMBL document CHEMBL6109139, “Rational Design of the First Dual Agonist at Trace Amine-Associated Receptor 1 and 5-HT2C Receptors Based on Binding Pocket Similarity for the Treatment of Schizophrenia and Alzheimer's Disease-Related Psychosis” (J Med Chem, 2025).
Calls of active or inactive are those of the source. The calls are words filed in the database; no cut-off is given here.

Tests used:
[1] = biological target: GABA-A receptor; anion channel (Homo sapiens) (UniProt P14867+P47870+P18507+P28472+P48169+Q99928+Q9UN88+P34903+O00591+O14764+Q8N1C3+P18505+P78334+P47869+P31644+Q16445); assay: Binding affinity to GABAA (unknown origin) at 10 uM by radioligand binding assay relative to control; format: protein-complex assay
[2] = Toxicity in female Beagle dog assessed as change in gross necropsy at 0.75 to 2.5 mg/kg, IG administered once daily for 4 weeks and measured after 4 weeks; format: organism-based, Canis lupus familiaris; conditions: in vivo, po, 1344 h, dose 0.75-2.5 mg/kg, time 8 weeks
[3] = biological target: Sodium-dependent serotonin transporter (Homo sapiens) (UniProt P31645); assay: Binding affinity to 5-HTT (unknown origin) at 10 uM by radioligand binding assay relative to control
Sodium-dependent serotonin transporter (Homo sapiens), sequence (P31645 whole entry, looked up): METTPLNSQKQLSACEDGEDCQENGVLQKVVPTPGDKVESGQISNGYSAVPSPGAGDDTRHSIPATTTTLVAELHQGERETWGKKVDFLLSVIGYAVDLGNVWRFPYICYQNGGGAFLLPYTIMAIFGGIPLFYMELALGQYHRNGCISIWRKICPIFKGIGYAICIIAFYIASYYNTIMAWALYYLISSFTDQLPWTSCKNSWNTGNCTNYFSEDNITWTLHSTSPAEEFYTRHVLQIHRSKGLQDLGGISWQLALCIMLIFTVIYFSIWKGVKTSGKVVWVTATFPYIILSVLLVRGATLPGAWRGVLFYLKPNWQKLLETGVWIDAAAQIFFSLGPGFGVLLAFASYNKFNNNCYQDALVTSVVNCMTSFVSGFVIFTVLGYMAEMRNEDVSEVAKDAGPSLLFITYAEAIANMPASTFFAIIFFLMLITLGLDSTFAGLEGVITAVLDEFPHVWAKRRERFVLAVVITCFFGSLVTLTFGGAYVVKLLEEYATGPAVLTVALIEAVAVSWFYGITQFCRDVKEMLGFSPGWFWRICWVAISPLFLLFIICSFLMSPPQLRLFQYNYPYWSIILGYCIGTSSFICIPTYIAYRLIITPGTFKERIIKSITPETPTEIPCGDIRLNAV

[4] = biological target: Prostaglandin G/H synthase 1 (Homo sapiens) (UniProt P23219); assay: Binding affinity to COX1 (unknown origin) at 10 uM by radioligand binding assay relative to control
Prostaglandin G/H synthase 1 (Homo sapiens), sequence (P23219 whole entry): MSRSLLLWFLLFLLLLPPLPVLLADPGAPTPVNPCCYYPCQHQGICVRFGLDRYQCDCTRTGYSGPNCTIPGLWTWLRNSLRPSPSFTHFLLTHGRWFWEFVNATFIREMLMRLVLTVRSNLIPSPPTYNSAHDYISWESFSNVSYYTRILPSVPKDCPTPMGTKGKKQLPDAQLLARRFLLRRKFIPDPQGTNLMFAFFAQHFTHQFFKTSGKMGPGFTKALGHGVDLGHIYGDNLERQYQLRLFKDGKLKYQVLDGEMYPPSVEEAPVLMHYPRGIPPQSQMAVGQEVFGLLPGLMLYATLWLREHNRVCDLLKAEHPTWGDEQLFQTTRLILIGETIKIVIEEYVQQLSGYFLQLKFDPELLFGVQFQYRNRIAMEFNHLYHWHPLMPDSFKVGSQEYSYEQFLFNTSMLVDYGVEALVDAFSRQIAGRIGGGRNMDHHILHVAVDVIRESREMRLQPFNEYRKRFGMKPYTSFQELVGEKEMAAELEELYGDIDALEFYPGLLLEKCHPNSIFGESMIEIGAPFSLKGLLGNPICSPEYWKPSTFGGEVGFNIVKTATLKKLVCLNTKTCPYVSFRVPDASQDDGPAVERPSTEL

[5] = biological target: Mu-type opioid receptor (Homo sapiens) (UniProt P35372); assay: Binding affinity to op-mu receptor (unknown origin) at 10 uM by radioligand binding assay relative to control
Mu-type opioid receptor (Homo sapiens), sequence (P35372 whole entry): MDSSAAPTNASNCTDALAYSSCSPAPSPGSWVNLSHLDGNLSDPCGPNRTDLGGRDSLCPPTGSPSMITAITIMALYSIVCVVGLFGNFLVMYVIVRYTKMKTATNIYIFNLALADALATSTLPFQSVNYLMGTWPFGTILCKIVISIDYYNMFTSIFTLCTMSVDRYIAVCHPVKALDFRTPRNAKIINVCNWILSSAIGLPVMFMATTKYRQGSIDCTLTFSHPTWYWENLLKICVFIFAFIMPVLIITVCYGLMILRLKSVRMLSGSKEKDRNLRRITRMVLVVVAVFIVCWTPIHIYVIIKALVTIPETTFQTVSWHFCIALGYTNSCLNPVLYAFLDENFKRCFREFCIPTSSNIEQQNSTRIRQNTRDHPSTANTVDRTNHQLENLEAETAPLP

[6] = Toxicity in female Beagle dog assessed as change in body temperature at 0.75 to 2.5 mg/kg, IG administered once daily for 4 weeks and measured after 4 weeks; format: organism-based, Canis lupus familiaris; conditions: in vivo, po, 1344 h, dose 0.75-2.5 mg/kg, time 8 weeks
Mus musculus [7] = species on record: Mus musculus; assay: Antipsychotic activity against MK-801 induced hyperlocomotion in male C57BL/6J mouse model assessed as effective dose; format: functional
[8] = Toxicity in female Sprague-Dawley rat assessed as change in bone marrow smears at 2.5 to 7.5 mg/kg, po administered once daily for 4 weeks and measured after 4 weeks; format: organism-based; conditions: in vivo, 1344 h, dose 2.5-7.5 mg/kg, time 8 weeks
[9] = Toxicity in female Beagle dog assessed as change in blood pressure at 0.75 to 2.5 mg/kg, IG administered once daily for 4 weeks and measured after 4 weeks; format: organism-based, Canis lupus familiaris; conditions: in vivo, po, 1344 h, dose 0.75-2.5 mg/kg, time 8 weeks
[10] = Mutagenicity in Salmonella typhimurium TA102 by Ames test; format: toxicity; conditions: salmonella enterica subsp. enterica serovar typhimurium
[11] = Toxicity in male Beagle dog assessed as change in gross necropsy at 0.75 to 2.5 mg/kg, IG administered once daily for 4 weeks and measured after 4 weeks; format: organism-based, Canis lupus familiaris; conditions: in vivo, po, 1344 h, dose 0.75-2.5 mg/kg, time 8 weeks
[12] = Toxicity in male Sprague-Dawley rat assessed as change in blood glucose level at 2.5 to 7.5 mg/kg, po administered once daily for 4 weeks and measured after 4 weeks; format: organism-based; conditions: in vivo, 1344 h, dose 2.5-7.5 mg/kg, time 8 weeks
[13] = Toxicity in female Beagle dog assessed as change in food consumption at 0.75 to 2.5 mg/kg, IG administered once daily for 4 weeks and measured after 4 weeks; format: organism-based, Canis lupus familiaris; conditions: in vivo, po, 1344 h, dose 0.75-2.5 mg/kg, time 8 weeks
MAO-A = MAO-A (Homo sapiens, UniProt P21397); assay: Binding affinity to MAO-A (unknown origin) at 10 uM by radioligand binding assay relative to control; conditions: read-out: Activity
MAO-A, sequence (P21397 whole entry): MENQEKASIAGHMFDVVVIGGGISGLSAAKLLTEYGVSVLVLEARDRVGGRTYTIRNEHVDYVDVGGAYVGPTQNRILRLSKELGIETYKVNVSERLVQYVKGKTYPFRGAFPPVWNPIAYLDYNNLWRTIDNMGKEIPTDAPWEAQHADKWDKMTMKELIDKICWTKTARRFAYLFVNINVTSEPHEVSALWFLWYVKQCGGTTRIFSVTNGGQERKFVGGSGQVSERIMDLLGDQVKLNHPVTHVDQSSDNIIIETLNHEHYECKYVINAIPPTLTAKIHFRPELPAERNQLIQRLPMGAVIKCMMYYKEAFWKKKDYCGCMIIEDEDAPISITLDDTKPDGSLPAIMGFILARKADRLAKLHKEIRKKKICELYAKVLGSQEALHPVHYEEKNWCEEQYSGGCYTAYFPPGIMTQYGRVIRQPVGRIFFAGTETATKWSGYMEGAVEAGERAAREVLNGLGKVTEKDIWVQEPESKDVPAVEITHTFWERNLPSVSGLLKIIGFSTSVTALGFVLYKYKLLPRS

[14] = biological target: Acetylcholinesterase (Homo sapiens) (UniProt P22303); assay: Binding affinity to ACHE (unknown origin) at 10 uM by radioligand binding assay relative to control
Acetylcholinesterase (Homo sapiens), sequence (P22303 whole entry): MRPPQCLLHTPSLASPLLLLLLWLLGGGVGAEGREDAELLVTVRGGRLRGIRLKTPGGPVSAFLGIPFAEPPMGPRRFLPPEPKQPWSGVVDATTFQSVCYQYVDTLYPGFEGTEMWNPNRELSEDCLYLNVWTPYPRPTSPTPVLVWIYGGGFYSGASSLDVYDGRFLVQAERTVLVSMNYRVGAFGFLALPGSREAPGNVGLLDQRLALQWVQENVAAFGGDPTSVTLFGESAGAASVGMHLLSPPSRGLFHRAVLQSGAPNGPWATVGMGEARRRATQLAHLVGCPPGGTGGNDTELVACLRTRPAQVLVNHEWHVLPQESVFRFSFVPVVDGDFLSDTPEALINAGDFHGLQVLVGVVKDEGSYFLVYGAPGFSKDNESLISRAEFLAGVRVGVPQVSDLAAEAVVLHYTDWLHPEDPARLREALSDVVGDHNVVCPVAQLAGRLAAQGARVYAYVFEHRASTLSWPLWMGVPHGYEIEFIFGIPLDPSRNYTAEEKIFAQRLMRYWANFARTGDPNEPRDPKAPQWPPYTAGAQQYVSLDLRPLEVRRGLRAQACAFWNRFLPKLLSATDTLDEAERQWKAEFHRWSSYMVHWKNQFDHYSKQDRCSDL

[15] = biological target: Neuronal acetylcholine receptor subunit alpha-7 (Homo sapiens) (UniProt P36544); assay: Binding affinity to nACHR-alpha7 (unknown origin) at 10 uM by radioligand binding assay relative to control
Neuronal acetylcholine receptor subunit alpha-7 (Homo sapiens), sequence (P36544 whole entry): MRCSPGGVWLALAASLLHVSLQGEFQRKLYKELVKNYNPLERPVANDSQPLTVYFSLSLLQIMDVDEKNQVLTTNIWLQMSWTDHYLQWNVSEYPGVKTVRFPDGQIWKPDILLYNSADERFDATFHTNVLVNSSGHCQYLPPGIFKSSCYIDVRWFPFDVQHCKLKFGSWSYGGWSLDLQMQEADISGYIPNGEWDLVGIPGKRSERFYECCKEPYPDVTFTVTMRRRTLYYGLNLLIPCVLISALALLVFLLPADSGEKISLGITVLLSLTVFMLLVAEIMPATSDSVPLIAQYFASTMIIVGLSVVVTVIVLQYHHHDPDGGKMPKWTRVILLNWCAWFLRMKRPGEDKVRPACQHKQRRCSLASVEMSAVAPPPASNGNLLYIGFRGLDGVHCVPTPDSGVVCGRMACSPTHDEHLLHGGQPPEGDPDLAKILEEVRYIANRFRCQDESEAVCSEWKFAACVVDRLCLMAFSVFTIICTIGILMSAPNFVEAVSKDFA

[16] = biological target: T1, 5-hydroxytryptamine receptor 2C (Homo sapiens, UniProt P28335); assay: Agonist activity at recombinant human 5-HT2CR expressed in HEK293 cells incubated for 2 hrs by FLIPR calcium assay; format: functional, cell-based
T1 sequence (P28335 whole entry): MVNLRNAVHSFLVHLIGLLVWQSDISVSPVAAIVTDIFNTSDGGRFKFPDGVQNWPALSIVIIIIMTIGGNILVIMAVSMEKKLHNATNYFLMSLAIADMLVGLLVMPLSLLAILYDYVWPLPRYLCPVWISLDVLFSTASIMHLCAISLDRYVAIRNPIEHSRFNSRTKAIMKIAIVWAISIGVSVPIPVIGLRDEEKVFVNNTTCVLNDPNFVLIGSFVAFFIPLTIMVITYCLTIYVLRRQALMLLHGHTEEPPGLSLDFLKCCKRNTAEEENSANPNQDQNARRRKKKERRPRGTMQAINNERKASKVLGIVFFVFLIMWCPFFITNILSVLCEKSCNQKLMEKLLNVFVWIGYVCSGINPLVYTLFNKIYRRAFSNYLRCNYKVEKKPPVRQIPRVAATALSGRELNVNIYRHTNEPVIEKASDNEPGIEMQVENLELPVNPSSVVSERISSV

[17] = Toxicity in male Beagle dog assessed as change in body temperature at 0.75 to 2.5 mg/kg, IG administered once daily for 4 weeks and measured after 4 weeks; format: organism-based, Canis lupus familiaris; conditions: in vivo, po, 1344 h, dose 0.75-2.5 mg/kg, time 8 weeks
[18] = Cardiotoxicity in conscious cynomolgus monkey assessed as good general health at 3.125 to 12.5 mg/kg, IG; format: toxicity, organism-based, Macaca fascicularis; conditions: in vivo, po, dose 3.125-12.5 mg/kg
[19] = biological target: 5-hydroxytryptamine receptor 3A (Homo sapiens) (UniProt P46098); assay: Binding affinity to 5-HT3 (unknown origin) at 10 uM by radioligand binding assay relative to control
5-hydroxytryptamine receptor 3A (Homo sapiens), sequence (P46098 whole entry): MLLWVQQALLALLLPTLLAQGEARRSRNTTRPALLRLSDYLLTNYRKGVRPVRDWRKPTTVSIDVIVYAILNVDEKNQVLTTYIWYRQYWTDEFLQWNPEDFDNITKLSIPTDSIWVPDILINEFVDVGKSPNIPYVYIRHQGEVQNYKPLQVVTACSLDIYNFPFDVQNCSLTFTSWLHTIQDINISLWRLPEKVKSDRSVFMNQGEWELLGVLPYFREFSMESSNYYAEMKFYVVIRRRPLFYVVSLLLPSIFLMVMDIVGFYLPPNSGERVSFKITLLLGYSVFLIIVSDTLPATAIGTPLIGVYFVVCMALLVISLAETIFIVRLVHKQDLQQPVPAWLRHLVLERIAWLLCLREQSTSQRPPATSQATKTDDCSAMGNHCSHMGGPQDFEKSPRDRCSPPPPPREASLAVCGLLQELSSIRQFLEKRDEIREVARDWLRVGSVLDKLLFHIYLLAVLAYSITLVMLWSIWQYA

[20] = Ratio of drug concentration in male Sprague-Dawley rat brain to plasma at 5 mg/kg, IG measured after 0.25 hrs by LC-MS/MS analysis; format: ADME, organism-based; conditions: brain and plasma, po, read-out: BPR
HEK293 = assay: Agonist activity at 5HT2CR […] mutant (unknown origin) expressed in HEK293 cells assessed as IP1 level by HTRF IP1 competitive binding assay; format: cell-based; conditions: Homo sapiens
[21] = biological target: Cannabinoid receptor 1 (Homo sapiens) (UniProt P21554); assay: Binding affinity to CB1 (unknown origin) at 10 uM by radioligand binding assay relative to control
Cannabinoid receptor 1 (Homo sapiens), sequence (P21554 whole entry): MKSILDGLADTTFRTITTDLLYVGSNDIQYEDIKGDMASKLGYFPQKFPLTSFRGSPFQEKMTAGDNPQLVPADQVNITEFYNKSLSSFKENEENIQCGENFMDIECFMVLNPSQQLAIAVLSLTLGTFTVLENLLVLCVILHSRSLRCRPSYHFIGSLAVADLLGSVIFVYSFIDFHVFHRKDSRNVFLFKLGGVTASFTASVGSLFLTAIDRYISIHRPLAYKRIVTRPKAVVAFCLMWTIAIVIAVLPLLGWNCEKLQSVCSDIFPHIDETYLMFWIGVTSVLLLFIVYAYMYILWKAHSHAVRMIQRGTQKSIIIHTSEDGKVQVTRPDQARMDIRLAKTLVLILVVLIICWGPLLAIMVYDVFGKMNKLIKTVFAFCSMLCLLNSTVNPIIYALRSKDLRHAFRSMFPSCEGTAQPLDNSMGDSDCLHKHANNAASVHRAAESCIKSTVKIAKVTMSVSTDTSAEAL

[22] = Toxicity in male Beagle dog assessed as minimal decrease activity at 2.5 mg/kg, IG administered once daily for 4 weeks and measured after 4 weeks; format: organism-based, Canis lupus familiaris; conditions: in vivo, po, 1344 h, time 8 weeks
[23] = Toxicity in female Beagle dog assessed as change in bone marrow smears at 0.75 to 2.5 mg/kg, IG administered once daily for 4 weeks and measured after 4 weeks; format: organism-based, Canis lupus familiaris; conditions: in vivo, po, 1344 h, dose 0.75-2.5 mg/kg, time 8 weeks
[24] = biological target: Histamine H1 receptor (Homo sapiens) (UniProt P35367); assay: Binding affinity to H1 receptor (unknown origin) at 10 uM by radioligand binding assay relative to control
Histamine H1 receptor (Homo sapiens), sequence (P35367 whole entry): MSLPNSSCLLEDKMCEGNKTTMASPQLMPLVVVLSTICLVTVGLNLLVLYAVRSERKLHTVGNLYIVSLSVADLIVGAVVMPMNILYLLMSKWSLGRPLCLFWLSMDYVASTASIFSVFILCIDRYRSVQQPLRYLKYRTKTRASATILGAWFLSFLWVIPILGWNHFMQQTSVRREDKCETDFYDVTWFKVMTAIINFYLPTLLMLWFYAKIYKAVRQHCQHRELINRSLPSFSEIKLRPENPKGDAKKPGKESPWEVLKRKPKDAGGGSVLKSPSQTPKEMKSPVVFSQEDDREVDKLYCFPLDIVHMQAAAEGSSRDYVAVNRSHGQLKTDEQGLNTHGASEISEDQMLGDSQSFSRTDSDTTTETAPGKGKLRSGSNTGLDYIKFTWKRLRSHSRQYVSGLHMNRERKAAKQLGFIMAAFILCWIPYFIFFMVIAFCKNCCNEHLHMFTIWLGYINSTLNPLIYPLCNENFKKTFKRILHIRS

[25] = Toxicity in male Sprague-Dawley rat assessed as piloerection at 7.5 mg/kg, po administered once daily for 4 weeks and measured after 4 weeks; format: organism-based; conditions: in vivo, 1344 h, time 8 weeks
[26] = Toxicity in male Sprague-Dawley rat assessed as suppression of food consumption at 7.5 mg/kg, po administered once daily for 4 weeks and measured weekly twice; format: organism-based; conditions: in vivo, 672 h
Mus musculus [27] = assay: Antipsychotic activity in amyloid beta(1 to 42) induced cognitive impairment in mouse model assessed as increase in discrimination ratio of novel objects at 1 mg/kg, IG measured after 24 hrs by novel object recognition test; format: functional, organism-based
[28] = Cardiotoxicity in conscious cynomolgus monkey assessed as change in diastolic pressure at 3.125 to 12.5 mg/kg, IG measured within 25 hrs; format: toxicity, organism-based, Macaca fascicularis; conditions: in vivo, po, dose 3.125-12.5 mg/kg

c1cc2c(s1)[C@@H]1CNCCN1CC2
Activity [1]: -21.4% | Activity [2]: Non-toxic | Activity [3]: 1.76% | Activity [4]: 33.3% | Activity [5]: 18.2% | Activity [6]: Non-toxic | ED50 (Mus musculus [7]): 2.81 mg/kg | Activity [8]: Non-toxic | Activity [9]: Non-toxic | Activity [10]: Non-toxic | Activity [11]: Non-toxic | Activity [12]: Non-toxic | Activity [13]: Non-toxic | activity at 10 µM (MAO-A): 5.33% | Activity [14]: -0.73% | Activity [15]: 5.02% | EC50 [16]: 246 nM | Activity [17]: Non-toxic | Activity [18]: Non-toxic | Activity [19]: 13% | Kp at 0.25 h [20]: 8.45 | Activity (HEK293): inactive | Activity [21]: 2.45% | Activity [22]: Non-toxic | Activity [23]: Non-toxic | Activity [24]: 6.65% | Activity [25]: Non-toxic | Activity [26]: Toxic | Activity (Mus musculus [27]): Active | Activity [28]: Non-toxic
